Test results reported in patent US20210198277A1, “AMINE-SUBSTITUTED ARYL OR HETEROARYL COMPOUNDS” (Epizyme, Inc., priority 2016, published 2021).
pIC50: −log10 of the molar value.

The compounds below were run against T1, EHMT1 (Homo sapiens, UniProt Q9H9B1) (assay: EHMT1 enzyme assay on peptide substrate (EHMT1 PEP)). Details: Table VI; read-out: EHMT1 PEP IC50.
T1 sequence (Q9H9B1 1-1298): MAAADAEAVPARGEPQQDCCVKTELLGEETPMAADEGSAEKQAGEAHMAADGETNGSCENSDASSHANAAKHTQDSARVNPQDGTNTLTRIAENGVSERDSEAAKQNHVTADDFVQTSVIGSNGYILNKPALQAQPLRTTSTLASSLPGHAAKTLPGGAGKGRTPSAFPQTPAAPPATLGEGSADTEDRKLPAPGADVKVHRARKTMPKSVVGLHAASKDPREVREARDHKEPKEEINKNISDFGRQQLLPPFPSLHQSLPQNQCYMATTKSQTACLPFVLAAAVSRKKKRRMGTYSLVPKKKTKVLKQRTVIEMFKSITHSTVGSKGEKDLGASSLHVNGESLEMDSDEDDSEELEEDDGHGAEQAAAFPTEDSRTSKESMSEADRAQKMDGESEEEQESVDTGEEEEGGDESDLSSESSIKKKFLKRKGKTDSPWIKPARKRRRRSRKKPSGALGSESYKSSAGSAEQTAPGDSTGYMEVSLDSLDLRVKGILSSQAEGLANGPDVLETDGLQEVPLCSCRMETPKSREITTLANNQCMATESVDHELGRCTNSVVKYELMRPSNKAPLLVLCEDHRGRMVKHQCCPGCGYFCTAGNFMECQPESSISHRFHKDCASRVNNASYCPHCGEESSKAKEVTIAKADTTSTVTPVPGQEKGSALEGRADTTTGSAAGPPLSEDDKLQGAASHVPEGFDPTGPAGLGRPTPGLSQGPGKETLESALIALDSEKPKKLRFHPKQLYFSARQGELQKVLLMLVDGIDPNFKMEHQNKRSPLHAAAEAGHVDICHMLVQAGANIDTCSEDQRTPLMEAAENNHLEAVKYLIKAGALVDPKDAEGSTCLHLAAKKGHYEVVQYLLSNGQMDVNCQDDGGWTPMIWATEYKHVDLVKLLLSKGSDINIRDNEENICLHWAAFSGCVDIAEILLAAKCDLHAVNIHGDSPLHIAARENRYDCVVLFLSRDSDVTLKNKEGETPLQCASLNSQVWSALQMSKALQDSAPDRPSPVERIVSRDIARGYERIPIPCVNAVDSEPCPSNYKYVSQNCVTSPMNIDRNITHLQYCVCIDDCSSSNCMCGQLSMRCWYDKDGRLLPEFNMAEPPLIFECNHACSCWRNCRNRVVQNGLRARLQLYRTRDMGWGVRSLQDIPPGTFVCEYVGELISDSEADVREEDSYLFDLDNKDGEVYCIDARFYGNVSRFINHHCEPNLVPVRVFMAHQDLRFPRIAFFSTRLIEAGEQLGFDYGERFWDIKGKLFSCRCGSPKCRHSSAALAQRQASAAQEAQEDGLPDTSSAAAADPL
Assay type: biochemical

SMILES	pIC50
CNc1ccnc(Nc2ccc(OC)c(OCC[C@H]3CCCN3)c2)n1 [Compound 1022]	6.00 to 7.00
CNc1cc(C)c2cc(OC)c(OC[C@H](O)CN3CCC3)cc2n1 [Compound 1028]	> 7.00
CNc1cc(C)nc(Nc2ccc(OC)c(CNCCN3CC[C@@H](F)C3)c2)n1 [Compound 1030]	> 7.00
CNCCNCc1cc(Nc2nccc(NC)n2)cnc1OC [Compound 1035]	6.00 to 7.00
CNCC(C)NCc1cc(Nc2nc(C)cc(NC)n2)ccc1OC (stereo not drawn) [Compound 1037]	6.00 to 7.00
CNc1cc(C)nc(Nc2ccc(OC)c(OC[C@@H]3CCN(C(C)C)C3)c2)n1 [Compound 1040]	6.00 to 7.00
COc1cc(N(C)C2CCNCC2)ncc1OCC1CCNC1 (stereo not drawn) [Compound 1041]	6.00 to 7.00
COc1cc(N(C)C2CCN(C)CC2)ncc1OCC1CCNC1 (stereo not drawn) [Compound 1042]	5.00 to 6.00

Next, values leading:

pIC50	SMILES
6.00 to 7.00	CNc1ccnc(Nc2ccc(OC)c(OCC[C@@H]3CCCN3)c2)n1 [Compound 1021]
> 7.00	CNc1cc(C)nc(Nc2cnc(OC)c(CNCCN3CCCC3)c2)n1 [Compound 1031]
> 7.00	CNc1ccnc(Nc2ccc(OC)c(CNCCN3CCCC3)c2)n1 [Compound 1032]
> 7.00	CNc1ccnc(Nc2ccc(OC)c(CNCCN3CCC3)c2)n1 [Compound 1033]
6.00 to 7.00	CNCCNCc1cc(Nc2nccc(NC)n2)ccc1OC [Compound 1034]
6.00 to 7.00	CNCCNC(C)c1cc(Nc2nc(C)cc(NC)n2)ccc1OC (stereo not drawn) [Compound 1036]
> 7.00	CNc1cc(C)nc(Nc2ccc(OC)c(OC[C@H](O)CN3CCC3)c2)n1 [Compound 1038, (2R)-1-(azetidin-1-yl)-3-(2-methoxy-5-[[4-methyl-6-(methylamino)pyrimidin-2-yl]amino]phenoxy)propan-2-ol]
